Source: the supplement of paper PMC10307832

Legend:
Assay in all cases: relative viability (nuclei count vs DMSO), 5 days (fraction); higher = more cells survive
[1] = compound: Cn1cc(-c2cnn3c(N)c(Br)c([C@@H]4CCCNC4)nc23)cn1 + CS(=O)(=O)CCNCc1ccc(-c2ccc3ncnc(Nc4ccc(OCc5cccc(F)c5)c(Cl)c4)c3c2)o1 [Lapatinib] (partner 2 µM)
Procedure, shortened: (§1)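 Medians of duplicate plates are given as relative viability. That measure is the nuclei count in treated wells divided by the count in vehicle wells. Counts were taken on 4× images of lung cancer cell lines in 1536-well plates, 5 days after pin-tool dosing the day after seeding with one drug alone or a fixed anchor-drug dose plus five library-drug doses (not always all listed) in √10 steps.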

[2] = compound: Cn1cc(-c2cnn3c(N)c(Br)c([C@@H]4CCCNC4)nc23)cn1 + C[C@@H](Oc1cc(-c2cnn(C3CCNCC3)c2)cnc1N)c1c(Cl)ccc(F)c1Cl [Crizotinib] (partner 1 µM)
Procedure, shortened: as §1

[3] = compound: Cn1cc(-c2cnn3c(N)c(Br)c([C@@H]4CCCNC4)nc23)cn1 + Cc1nc(Nc2ncc(C(=O)Nc3c(C)cccc3Cl)s2)cc(N2CCN(CCO)CC2)n1 [Dasatinib] (partner 0.075 µM)
Procedure, shortened: as §1

[4] = compound: Cn1cc(-c2cnn3c(N)c(Br)c([C@@H]4CCCNC4)nc23)cn1 + Nc1nc2[nH]cc(CCc3ccc(C(=O)N[C@@H](CCC(=O)O)C(=O)O)cc3)c2c(=O)[nH]1 [Pemetrexed] (partner 0.2 µM)
Procedure, shortened: as §1

| Cell Line | relative viability ([1]; first compound 0.05 µM) | relative viability ([1]; first compound 0.1581 µM) | relative viability ([1]; first compound 0.5 µM) | relative viability ([1]; first compound 1.581 µM) | relative viability ([1]; first compound 5 µM) | relative viability ([2]; first compound 0.05 µM) | relative viability ([2]; first compound 0.1581 µM) | relative viability ([2]; first compound 0.5 µM) | relative viability ([2]; first compound 1.581 µM) | relative viability ([2]; first compound 5 µM) | relative viability ([3]; first compound 0.05 µM) | relative viability ([3]; first compound 0.1581 µM) | relative viability ([3]; first compound 0.5 µM) | relative viability ([3]; first compound 1.581 µM) | relative viability ([3]; first compound 5 µM) | relative viability ([4]; first compound 0.05 µM) | relative viability ([4]; first compound 0.1581 µM) | relative viability ([4]; first compound 0.5 µM) | relative viability ([4]; first compound 1.581 µM) | relative viability ([4]; first compound 5 µM) |
| --- | --- | --- | --- | --- | --- | --- | --- | --- | --- | --- | --- | --- | --- | --- | --- | --- | --- | --- | --- | --- |
| CAL-12T | 0.713 | 0.735 | 0.723 | 0.618 | 0.395 | 0.612 | 0.459 | 0.485 | 0.321 | 0.176 | 0.467 | 0.427 | 0.26 | 0.299 | 0.174 | 1.45 | 0.778 | 0.892 | 0.623 | 0.393 |
| COR-L23 | 0.966 | 1.26 | 1.03 | 0.471 | 0.445 | 0.594 | 0.809 | 0.731 | 0.518 | 0.179 | 0.495 | 0.451 | 0.441 | 0.343 | 0.2 | 0.196 | 0.178 | 0.178 | 0.186 | 0.139 |
| NCI-H1755 | 1.15 | 1.14 | 1.09 | 0.743 | 0.758 | 0.988 | 1.03 | 0.932 | 0.845 | 0.602 | 0.4 | 0.42 | 0.42 | 0.407 | 0.253 | 0.398 | 0.397 | 0.401 | 0.373 | 0.272 |
| NCI-H1437 | 0.802 | 0.975 | 0.741 | 0.563 | 0.505 | 1.09 | 1.05 | 0.967 | 0.693 | 0.849 | 0.389 | 0.39 | 0.4 | 0.298 | 0.343 | 0.294 | 0.226 | 0.248 | 0.172 | 0.194 |
| NCI-H2085 | 0.801 | 0.847 | 0.893 | 0.738 | 0.621 | 0.846 | 1.01 | 0.733 | 0.794 | 0.646 | 0.239 | 0.235 | 0.229 | 0.24 | 0.203 | 0.864 | 0.925 | 0.921 | 0.789 | 0.7 |
| H3255 | 0.25 | 0.214 | 0.247 | 0.264 | 0.204 | 0.799 | 0.852 | 0.942 | 0.729 | 0.5 | 0.313 | 0.379 | 0.39 | 0.446 | 0.267 | 0.537 | 0.536 | 0.56 | 0.483 | 0.461 |
| NCI-H650 | 0.802 | 0.831 | 1.03 | 0.652 | 0.503 | 0.778 | 0.708 | 0.706 | 0.627 | 0.606 | 0.439 | 0.409 | 0.451 | 0.474 | 0.422 | 0.893 | 0.93 | 0.92 | 0.919 | 0.63 |
| LOU-NH91 | 0.785 | 0.694 | 0.761 | 0.713 | 0.619 | 0.727 | 0.724 | 0.739 | 0.713 | 0.626 | 0.561 | 0.506 | 0.514 | 0.519 | 0.48 | 0.398 | 0.289 | 0.254 | 0.25 | 0.64 |
| NCI-H1650 | 0.854 | 0.882 | 0.711 | 0.64 | 0.428 | 1.08 | 0.909 | 1.29 | 0.709 | 0.477 | – | 0.296 | 0.257 | 0.256 | 0.178 | 0.368 | 0.288 | 0.292 | 0.239 | 0.224 |
| NCI-H3122 | 1.1 | 1.07 | 1.07 | 1.04 | 1.05 | 0.305 | 0.275 | 0.255 | 0.273 | 0.263 | 0.905 | 0.833 | 0.614 | 0.84 | 0.64 | 0.196 | 0.169 | 0.158 | 0.147 | 0.164 |
| PC-3 [JPC-3] | 0.423 | 0.504 | 0.474 | 0.416 | 0.482 | 1 | 1.01 | 1.02 | 0.835 | 1.12 | 1.02 | 1.09 | 0.826 | 0.775 | 1.01 | 0.698 | 1.03 | – | 1.09 | 0.82 |
| NCI-H1651 | 0.733 | 0.874 | 0.708 | 0.494 | 0.367 | 0.902 | 0.985 | 0.806 | 0.821 | 0.569 | 0.348 | 0.447 | 0.551 | 0.224 | 0.149 | 0.549 | 0.406 | 0.559 | 0.32 | 0.198 |
| NCI-H2087 | 1.29 | 1.17 | 0.996 | 1.21 | 0.985 | 1.01 | 1.27 | 0.939 | 0.983 | 0.954 | 0.856 | 0.936 | 1.09 | 0.835 | 0.809 | 0.671 | 0.637 | 0.615 | 0.582 | 0.647 |
